Reference: patent US20230277582A1, “TREATMENT OF PRIMARY AND/OR SECONDARY LUNG TUMORS USING GASEOUS NITRIC OXIDE INHALATION” (Beyond Air, Inc., priority 2020, published 2023)
Where two headings read alike, the source gives them in different places.

Tests used:
CT26 colon cancer cells = assay: In vitro NO treatment, cell viability by XTT assay, CT26; type: cell-based, mouse
Experimental: (§1) 10,000-20,000 cells from a cancer cell line were plated onto a 96-well plate. After an overnight incubation at 37° C. and 5% CO2, the cell culture medium was removed, and the plate was placed inside an exposure chamber made of acrylic glass, which was closed and sealed with paraffin wax tape. A gas delivery line was inserted from the top of the chamber. NO supplied from 800 ppm NO cylinders, as well as air and oxygen, were delivered to the chamber at a gas flow rate of 1 liter per minute. NO was diluted to the indicated concentration and the final oxygen concentration inside the chamber was adjusted to about 21%, to avoid cell death due to lack of oxygen. Gas exposure lasted for the indicated time period, for one to seven exposure cycles. Gas exchange during this time was permitted via an outlet hole located close to the bottom of the chamber. Cancer cells exposed to air served as a control group. Cell viability was determined using an XTT (2,3-bis-(2-methoxy-4-nitro-5-sulfophenyl)-2H-tetrazolium-5-carboxanilide) assay, whereby conversion of the XTT by viable cells to the corresponding formazan dye was quantified by spectrophotometry.
CT26 colon cancer cells (a mouse colon cancer line) were grown in 100 μl RPMI (Roswell Park Memorial Institute medium)-based tissue culture medium, supplemented with 1% streptomycin-penicillin and 10% fetal bovine serum, and plated 1 day before exposure to NO in 10 ml RPMI-based tissue culture medium; and then exposed to 400 ppm NO for 1 hour, or to 200 ppm NO for one or more cycles of 15 minutes (separated by 30 minutes of rest at 37° C.), using the procedures described hereinabove. Immediately after each exposure, 100 μl of the abovementioned supplemented RPMI-based tissue culture medium was added to each well and plated were stored at 37° C. and 5% CO2.
CT26 colon cancer cells were exposed to 1 μM of the chemotherapeutic agent 5-fluorouracil (5FU), in addition to 200 ppm NO for 30 minutes, using the procedures described hereinabove, except that after overnight incubation at 37° C. and 5% CO2, the 5FU was added to the cell culture medium, and the cells were subjected to a second overnight incubation prior to being placed within the exposure chamber, as described therein.
In another experiment, CT26 cells were exposed to 0.5-50 μM 5FU and 4 cycles of 200 ppm NO for 10 minutes (separated by 30 minutes of rest at 37° C.), using the procedures described hereinabove, except that the 5FU was added immediately after the last exposure to NO (or air), followed by incubation for about 24 hours.

healthy rats = assay: Safety study of intermittent NO inhalation in healthy rats; type: in vivo, rat; settings: 250-400 ppm NO, 12 days
Experimental: (§2) The effect of intermittent inhalation of NO at a concentration of 250-400 ppm was tested for 30 days in healthy dogs and for 12 days in healthy rats.

S. aureus = settings: 200 ppm gNO; cited from earlier work
LLC1 lung cancer cells = assay: In vitro NO treatment, cell viability by XTT assay, LLC1; type: cell-based; settings: Mus musculus, read-out: LLC1 cells not viable
Experimental: as §1
Furthermore, LLC1 lung cancer cells (a mouse lung cancer line) were exposed to 200 ppm NO for 15 or 30 minutes, using the procedures described hereinabove.

[1] = system: human fibroblast, keratinocyte, endothelial, monocyte and macrophage cells; settings: 200 ppm gNO; cited from earlier work
healthy dogs = assay: Safety study of intermittent NO inhalation in healthy dogs; type: in vivo, dog; settings: 250-400 ppm NO, 30 days
Experimental: as §2

| SMILES | CT26 cell viability (CT26 colon cancer cells; 400 ppm NO for 1 hour (FIG. 1)) | cytotoxicity at 200 ppm (CT26 colon cancer cells; Mus musculus, CT26, 0.5 h, read-out: reduction of CT26 cell viability) | viability at 200 ppm (CT26 colon cancer cells; Mus musculus, CT26, read-out: CT26 cell viability (decreased to)) | CT26 cell viability (CT26 colon cancer cells; seven cycles of 15 minutes, 200 ppm NO, compared to four cycles (FIG. 2C)) | CT26 cell viability (CT26 colon cancer cells; single 15 minute exposure to 200 ppm NO (FIG. 2A)) | macroscopic or microscopic effect of NO inhalation (healthy rats) | S. aureus burden in rabbit wound model (S. aureus) | cytotoxicity at 200 ppm (LLC1 lung cancer cells; LLC1, 0.25 h, 200 ppm NO for 15 minutes (FIG. 3)) | cytotoxicity at 200 ppm (LLC1 lung cancer cells; LLC1, 0.5 h, 200 ppm NO for 30 minutes (FIG. 3)) | cytotoxicity to human cells in culture [1] | macroscopic or microscopic effect of NO inhalation (healthy dogs) | effect on CT26 cells (viability) (CT26 colon cancer cells; 1 μM 5FU alone, overnight incubation (FIG. 4)) |
| --- | --- | --- | --- | --- | --- | --- | --- | --- | --- | --- | --- | --- |
| [N]=O [NO, nitric oxide] | not viable | 51% | ~40% | did not produce an additional reduction in viability | little effect | No macroscopic or microscopic effect | reduced S. aureus burden | 41% | 65% | without being cytotoxic | No macroscopic or microscopic effect |  |
| O=c1[nH]cc(F)c(=O)[nH]1 [5FU, 5-fluorouracil] |  |  |  |  |  |  |  |  |  |  |  | little effect |
